Data taken from patent US5786333A, “Platelet aggregation inhibitors” (COR Therapeutics, Inc., priority 1995, dated 1998).
Read-outs that look alike come from different tables or passages of the source. Where a SMILES comes first, the peptide text is derived from it. Bridges are numbered along the chain shown (N, C = ends).

What was measured:
open chest dog = assay: Folts model of thrombosis in dog coronary artery (cyclic flow reductions); format: in vivo
Protocol: A. Initiation of cyclic flow reductions (CFRs) in open chest dog. An occluder placed on the left anterior descending (LAD) coronary artery of a 20 kg dog, as previously described was performed.

GP IIb-IIIa = biological target: T1, GP IIb-IIIa (Homo sapiens, UniProt P05106+P08514); assay: Fibrinogen/GP IIb-IIIa plate binding assay; conditions: for inhibition of binding of fibrinogen to GP IIb-IIIa (in words): plate assay; for differential inhibition of fibrinogen/GP IIb-IIIa binding as compared to vitronectin/vitronectin receptor binding: plate assays, FIG. 30
T1 construct: Purified platelet GP IIb-IIIa receptor was prepared as described by Fitzgerald, L. A., et al; from tissue; host or cells: platelets
Protocol: In the assay, GP IIb-IIIa, prepared in purified form, for example as described by Fitzgerald, L. A., et al., Anal Biochem (1985) 151:169-177, incorporated herein by reference, is coated onto a solid support such as beads, test tubes, or microtiter plates. The coated support is then contacted with fibrinogen and with the test material and incubated for a sufficient time to permit maximal binding of fibrinogen to the immobilized GP IIb-IIIa. Fibrinogen is typically provided at a concentration of about 5-50 nM and the test material can, if desired, be added at a series of dilutions. Typical incubations are 2-4 hr at 35° C., the time and temperature being interdependent.
After incubation, the solution containing the fibrinogen and test material is removed and the level of binding of fibrinogen measured by quantitating bound fibrinogen to GP IIb-IIIa. Any suitable means of detection may be used, but it is convenient to employ labeled fibrinogen, for example using radioactive, fluorescent or biotinylated labels. Such methods are well known and need not be elaborated here.
In this case, percent inhibition may be calculated using the amount of Fg bound in the control as representing the basis, so that [formula] Other measures of inhibition effectiveness, such as IC50, may also be used.
Purified platelet GP IIb-IIIa receptor was prepared as described by Fitzgerald, L. A., et al., Anal Biochem (1985) 151:169-177. Vitronectin receptor was prepared as described by Smith, J. W., J Biol Chem (1988) 263:18726-18731. After purification, the receptors were stored in 0.1% Triton X-100 at 0.1-1.0 mg/ml.
The receptors were coated to the wells of 96-well flat-bottom ELISA plates (Linbro EIA-Plus microtiter plate, Flow Laboratories) after diluting 1:200 with a solution of […], 150 mM NaCl, 1 mM CaCl2, pH 7.4, to reduce the Triton X-100 concentration to below its critical micellar concentration and adding an aliquot of 100 ul to each well. The wells were all allowed to incubate overnight at 4° C., and then aspirated to dryness. Additional sites were blocked by the addition of bovine serum albumin (BSA) at 35 mg/ml in the above buffer for 2 hr at 30° C. to prevent nonspecific binding. The wells were then washed once with binding buffer ([…] Tris-HCl, 100 mM NaCl, 2 mM CaCl2, 1 mg/ml BSA).
The corresponding ligands (fibrinogen, von Willebrand Factor, or vitronectin) were labeled with ^125 I or conjugated to biotin using commercially available re-agents and standard protocols. The labeled ligands were added to the receptor-coated wells at final concentration of 10 nM (100 ul/well) and incubated for 3 h at 30° C. in the presence or absence of the test samples. After incubation, the wells are aspirated to dryness and bound ligand is quantitated.
(§1) For ^125 I-labeled ligands, the protein is solubilized with 250 ul SDS. For biotinylated ligands, the bound protein is detected by the addition of antibiotin antibody conjugated to alkaline phosphatase followed by addition of substrate (p-nitrophenyl phosphate), and determination of the optical density of each well at 405 nm.
Sixty-eight crude, lyophilized snake venoms obtained from either Sigma Chemical Company (St. Louis, Mo.) or Miami Serpentarium Labs (Salt Lake City, Utah) were dissolved at 1 mg/ml in buffer (50 mM Tris, 100 mM NaCl, 0.02% azide, 2 mM CaCi2). One ml aliquots of the solutions were subjected to ultrafiltration through Centrocon-10 (YM membrane) microconcentrators (Amicon, Danvers, Mass.). The filtrates were used as test samples in the receptor/ligand assay of paragraph A using the GP IIb-IIIa/fibrinogen system, and detecting binding using biotinylated fibrinogen.

M21 melanoma cells = assay: M21 melanoma cell attachment to vitronectin; format: cell-based; conditions: for inhibition of M21 melanoma cell attachment to vitronectin (in words): 35S-methionine labelled cells, vitronectin-coated plates
Protocol: M21 melanoma cells, which express high levels of the vitronectin receptor, were metabolically labelled with ^35 S-methionine, and then added to 24--well tissue culture plates coated with vitronectin. An incubation period of 1 hr at 37° C. was allowed for cell attachment, and this was followed by a wash to remove non-adherent cells. After washing, the adherent cells were solubilized, and the supernatants placed in a liquid scintillation counter. The fraction of cells remaining adherent was calculated by dividing the cpm in the solubilized supernatants by the cpm in the total number of cells added to each well. The effects of purifed snake venom peptides and synthetic cyclic peptides on cell adhesion was determined by including them with the M21 cells during the incubation period.
M21 melanoma cells were labelled with ^35 S-methionine, and then added to vitronectin-coated plates in the presence of the indicated concentrations of purified snake venom peptides. Cell attachment was measured by solubilizing the cells remaining after an incubation and wash, as described in Section C, on page 40.

human platelets = human platelets (Homo sapiens, UniProt P05106+P08514); assay: ADP-induced human platelet aggregation in platelet rich plasma; format: cell-based
Protocol: In these assays, washed platelets are combined with fibrinogen, Ca^+2 and the material to be tested.
Platelet rich plasma (PRP) was obtained from a healthy human volunteer. Aggregation was induced by the addition of 4 uM ADP to 0.5 ml PRP in an aggregometer (Chrono-log Corp.).
Fractions were concentrated to one-half their original volume using a Speed-Vac concentrator (Savant) followed by lyophilization. Samples were then reconstituted in 1 ml distilled water and aliquots (10-50 ul) assayed for their ability to inhibit human platelet aggregation in platelet-rich plasma induced by 20 uM ADP using a whole blood aggregometer (Chrono-Log Corp., Havertown, Pa.).

platelet receptors = platelet receptors (Homo sapiens, UniProt P05106+P08514); conditions: read-out: IC50 (affinity of interaction with platelet receptors); background art; cited from earlier work
vitronectin receptor = biological target: T2, vitronectin receptor (Homo sapiens, UniProt P05106+P06756); assay: Vitronectin/vitronectin receptor plate binding assay
T2 construct: Vitronectin receptor was prepared as described by Smith, J. W., J Biol Chem (1988) 263:18726-18731; from tissue; the cited method uses human placenta (own knowledge)
T2 sequence (P06756 31-889 limits assumed): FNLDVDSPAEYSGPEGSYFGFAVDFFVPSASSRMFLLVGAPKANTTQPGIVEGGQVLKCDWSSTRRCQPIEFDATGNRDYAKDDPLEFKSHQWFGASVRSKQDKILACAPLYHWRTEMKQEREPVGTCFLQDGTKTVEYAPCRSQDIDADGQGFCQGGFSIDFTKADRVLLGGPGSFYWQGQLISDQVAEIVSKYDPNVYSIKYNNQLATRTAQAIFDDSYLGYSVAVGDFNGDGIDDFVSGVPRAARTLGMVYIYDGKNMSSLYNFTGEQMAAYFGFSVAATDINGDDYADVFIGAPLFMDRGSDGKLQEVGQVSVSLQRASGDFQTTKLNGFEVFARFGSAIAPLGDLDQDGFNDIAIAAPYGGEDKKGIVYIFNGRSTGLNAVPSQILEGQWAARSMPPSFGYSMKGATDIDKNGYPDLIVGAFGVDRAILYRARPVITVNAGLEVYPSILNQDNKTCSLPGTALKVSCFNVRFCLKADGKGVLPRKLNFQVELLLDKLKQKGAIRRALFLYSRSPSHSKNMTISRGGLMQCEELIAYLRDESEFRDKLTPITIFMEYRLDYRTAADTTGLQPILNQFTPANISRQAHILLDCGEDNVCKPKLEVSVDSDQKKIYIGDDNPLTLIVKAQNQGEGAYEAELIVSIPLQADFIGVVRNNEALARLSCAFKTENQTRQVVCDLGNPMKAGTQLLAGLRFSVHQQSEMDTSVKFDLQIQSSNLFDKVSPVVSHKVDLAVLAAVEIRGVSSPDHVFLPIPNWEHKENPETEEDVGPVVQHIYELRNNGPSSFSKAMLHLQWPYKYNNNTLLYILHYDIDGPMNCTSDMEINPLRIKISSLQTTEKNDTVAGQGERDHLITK
T2 sequence (P06756 891-1048 partner limits assumed): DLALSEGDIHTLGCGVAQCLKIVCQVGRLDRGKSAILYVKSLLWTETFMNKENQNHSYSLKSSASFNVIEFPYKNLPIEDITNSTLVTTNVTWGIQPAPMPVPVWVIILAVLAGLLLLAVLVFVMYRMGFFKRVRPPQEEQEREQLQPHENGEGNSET
T2 sequence (P05106 27-788): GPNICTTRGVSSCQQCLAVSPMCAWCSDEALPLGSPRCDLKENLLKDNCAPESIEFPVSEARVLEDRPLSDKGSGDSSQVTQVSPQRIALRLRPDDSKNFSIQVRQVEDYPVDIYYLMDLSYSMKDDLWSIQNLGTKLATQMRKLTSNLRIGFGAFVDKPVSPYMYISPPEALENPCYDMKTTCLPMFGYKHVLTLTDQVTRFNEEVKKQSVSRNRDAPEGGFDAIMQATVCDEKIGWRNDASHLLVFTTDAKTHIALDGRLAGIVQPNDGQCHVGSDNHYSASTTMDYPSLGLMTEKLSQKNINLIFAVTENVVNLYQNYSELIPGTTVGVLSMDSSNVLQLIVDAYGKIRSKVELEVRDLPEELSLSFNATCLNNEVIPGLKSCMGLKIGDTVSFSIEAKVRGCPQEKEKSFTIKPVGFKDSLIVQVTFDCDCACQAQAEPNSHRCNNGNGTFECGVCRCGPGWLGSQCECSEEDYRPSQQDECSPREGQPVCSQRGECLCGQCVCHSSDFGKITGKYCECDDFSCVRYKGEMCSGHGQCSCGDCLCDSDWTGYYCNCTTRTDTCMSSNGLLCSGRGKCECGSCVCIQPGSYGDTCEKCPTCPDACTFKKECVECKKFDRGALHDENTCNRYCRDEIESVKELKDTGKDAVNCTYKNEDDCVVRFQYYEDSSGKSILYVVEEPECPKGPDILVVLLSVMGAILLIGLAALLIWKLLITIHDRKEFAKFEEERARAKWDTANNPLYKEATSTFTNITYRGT
From the text: The assay systems of the invention further include characterization of the PAI specificity by binding inhibition assays identical to that above but substituting other adhesive proteins for Fg and other receptors for GP IIb-IIIa. In particular, inhibition of the binding of vitronectin to the vitronectin receptor; fibronectin to the fibronectin receptor; fibronectin to GP IIb-IIIa and fibrinogen and/or vWF to GP IIb-IIIa may be assessed. The adhesive protein and receptors for these assays are available in the art.
Purified platelet GP IIb-IIIa receptor was prepared as described by Fitzgerald, L. A., et al., Anal Biochem (1985) 151:169-177. Vitronectin receptor was prepared as described by Smith, J. W., J Biol Chem (1988) 263:18726-18731. […]
The corresponding ligands (fibrinogen, von Willebrand Factor, or vitronectin) were labeled with ^125 I or conjugated to biotin using commercially available re-agents and standard protocols. […] After incubation, the wells are aspirated to dryness and bound ligand is quantitated.
as §1, with “nm. […]” for “nm.”

[1] = ADP-induced human platelet aggregation, table of Example 17, read-out: Appr. IC50

C[C@H](NC(=O)[C@@H]1CSSC[C@H](NC(=O)CN)C(=O)NCC(=O)N[C@@H](CCCCN)C(=O)NCC(=O)N[C@@H](CC(=O)O)C(=O)N[C@@H](Cc2c[nH]c3ccccc23)C(=O)N2CCC[C@H]2C(=O)N1)C(N)=O [#3]
effect on cyclic flow reductions (CFRs) in LAD coronary artery (open chest dog; 10 mg infused into a peripheral vein, 20 kg open chest dog, FIG. 36): partial ablation of the CFRs | effect on cyclic flow reductions (CFRs) in LAD coronary artery (open chest dog; second infusion of 40 mg into a peripheral vein, open chest dog, FIG. 37): complete ablation of the CFRs

N=C(N)NCCC[C@H](N)C(=O)NCC(=O)N[C@@H](CC(=O)O)C(=O)N[C@@H](Cc1c[nH]c2ccccc12)C(N)=O [RGDW-NH2, reference compound] (H-RGDW-NH2)
inhibition of binding of fibrinogen to GP IIb-IIIa (in words) (GP IIb-IIIa): very similar in activity to cyclic GCGRGDWPCA-NH2

C[C@H](NC(=O)[C@@H]1CSSC[C@H](NC(=O)CN)C(=O)NCC(=O)N[C@@H](CCCCN)C(=O)NCC(=O)N[C@@H](CC(=O)O)C(=O)N[C@@H](Cc2c[nH]c3ccccc23)C(=O)N1)C(N)=O [Analog 6] (H-GCGKGDWCA-NH2; disulfide 2-8)
differential inhibition of fibrinogen/GP IIb-IIIa binding as compared to vitronectin/vitronectin receptor binding (GP IIb-IIIa): differentially capable

C[C@H](NC(=O)[C@@H]1CSSC[C@H](NC(=O)CN)C(=O)N[C@@H](CCCCN)C(=O)NCC(=O)N[C@@H](CC(=O)O)C(=O)N[C@@H](Cc2c[nH]c3ccccc23)C(=O)N2CCC[C@H]2C(=O)N1)C(N)=O [#4] (H-GCKGDWPCA-NH2; disulfide 2-8)
differential inhibition of fibrinogen/GP IIb-IIIa binding as compared to vitronectin/vitronectin receptor binding (GP IIb-IIIa): highest differential

C[C@H](NC(=O)[C@@H]1CSSC[C@H](NC(=O)CN)C(=O)NCC(=O)N[C@@H](CCCCN)C(=O)NCC(=O)N[C@@H](CC(=O)O)C(=O)N[C@@H](Cc2c[nH]c3ccccc23)C(=O)N2CCC[C@H]2C(=O)N1)C(N)=O [Analog #3, G-C-G-K-G-D-W-P-C-A-NH2]
inhibition of M21 melanoma cell attachment to vitronectin (in words) (M21 melanoma cells): lack of ability | concentration up to which ineffective on M21 cell attachment to vitronectin (M21 melanoma cells; FIG. 32): > 60 µM

NCCCC[C@@H]1NC(=O)CNC(=O)[C@@H](N)CSSC[C@@H](C(N)=O)NC(=O)[C@@H]2CCCN2C(=O)[C@H](Cc2c[nH]c3ccccc23)NC(=O)[C@H](CC(=O)O)NC(=O)CNC1=O [#5] (H-CGKGDWPC-NH2; disulfide 1-8)
differential inhibition of fibrinogen/GP IIb-IIIa binding as compared to vitronectin/vitronectin receptor binding (GP IIb-IIIa): quite specific | platelet aggregation inhibition (in words) (human platelets): excellent platelet aggregation inhibition activities

C[C@H](NC(=O)[C@@H]1CSSC[C@H](NC(=O)CN)C(=O)NCC(=O)N[C@@H](CCCNC(=N)N)C(=O)NCC(=O)N[C@@H](CC(=O)O)C(=O)N[C@@H](Cc2c[nH]c3ccccc23)C(=O)N2CCC[C@H]2C(=O)N1)C(N)=O [reference compound] (H-GCGRGDWPCA-NH2; disulfide 2-9)
inhibition of M21 melanoma cell attachment to vitronectin (in words) (M21 melanoma cells): potent inhibitors of cell attachment | inhibition of M21 melanoma cell attachment to vitronectin (in words) (M21 melanoma cells; listed as cyclic RGD compound): ability

NCCCC[C@@H]1NC(=O)[C@@H](N)CSSC[C@@H](C(N)=O)NC(=O)[C@@H]2CCCN2C(=O)[C@H](Cc2c[nH]c3ccccc23)NC(=O)[C@H](CCC(=O)O)NC(=O)CNC1=O [#35] (H-CKGEWPC-NH2; disulfide 1-7)
IC50 (human platelets; [1]): > 300 µM

HHLGGAQKAGDV
IC50 (platelet receptors): 10 to 100 µM

EEPCATGPCCRRCKFKRAGKVCRVAKGDWNNDYCTGKSCDCPRNPWNG (EEPCATGPCCRRCKFKRAGKVCRVAKGDWNNDYCTGKSCDCPRNPWNG) [Analog #2]
inhibition of binding of fibrinogen to GP IIb-IIIa (in words) (GP IIb-IIIa): ability | inhibition of binding of vitronectin to vitronectin receptor (in words) (vitronectin receptor): inability to inhibit

ECADGLCCDQCRFLKKGTVCRVAKGDWNDDTCTGQSC- D-C-P-R-N-G-L-Y-G (ECADGLCCDQCRFLKKGTVCRVAKGDWNDDTCTGQSCDCPRNGLYG) [Analog #1]
platelet aggregation inhibition (in words) (human platelets): potent inhibitors of platelet aggregation | inhibition of M21 melanoma cell attachment to vitronectin (in words) (M21 melanoma cells): neither barbourin nor Peptide 1 (truncated barbourin) had a significant effect

C[C@H](NC(=O)[C@@H]1CSSC[C@H](NC(=O)CN)C(=O)N[C@@H](CCCCN)C(=O)NCC(=O)N[C@@H](CC(=O)O)C(=O)N[C@@H](Cc2c[nH]c3ccccc23)C(=O)N1)C(N)=O [#7] (H-GCKGDWCA-NH2; disulfide 2-7)
differential inhibition of fibrinogen/GP IIb-IIIa binding as compared to vitronectin/vitronectin receptor binding (GP IIb-IIIa): quite specific | platelet aggregation inhibition (in words) (human platelets): excellent platelet aggregation inhibition activities | IC50 (human platelets; text of Example 17, read-out: IC50 for ability to inhibit ADP-induced human platelet aggregation): 100 µM

CC(=O)N[C@H]1CSSC[C@@H](C(N)=O)NC(=O)[C@H](CC(=O)O)NC(=O)CNC(=O)[C@H](CCCCN)NC1=O [Analog 8] (Ac-CKGDC-NH2; disulfide 1-5)
differential inhibition of fibrinogen/GP IIb-IIIa binding as compared to vitronectin/vitronectin receptor binding (GP IIb-IIIa): differentially capable

C[C@H](NC(=O)[C@@H]1CSSC[C@H](NC(=O)CN)C(=O)NCC(=O)N[C@@H](CCCCN)C(=O)NCC(=O)N[C@@H](CC(=O)O)C(=O)N[C@@H](Cc2c[nH]c3ccccc23)C(=O)N1)C(N)=O [#6] (H-GCGKGDWCA-NH2; disulfide 2-8)
IC50 (human platelets; [1]): > 200 µM
